Laboratory results published in the pKa sets of Baltruschat and Czodrowski (2020).

Row | SMILES | pKa (basic group) | pKa (acidic group)
1 | CC1=CSC2=NCCCN12 | 10.3 | 
2 | N#CC(C#N)=NNc1ccccc1 | -0.82 | 6.55
3 | N#CC1C(=O)Cc2ccccc21 (centres undefined) | 4.8 | 
4 | NC1=N[C@@H](CC(=O)[O-])C(=O)N1CCCC(N)C(=O)[O-] (some centres undefined) | 9.55 | 
5 | CC1=CCCCN1C | 11.4 | 
6 | O=[N+]([O-])c1ccc2cccnc2c1O | 1.94 | 
7 | CNC(=N)N(C)C | 13.6 | 
8 | c1nc(Cc2c[nH]c(Cc3nc(Cc4c[nH+]c[nH]4)c[nH]3)[nH+]2)c[nH]1 | 5.43 | 
9 | O=[N+]([O-])c1cc(Br)ccc1O |  | 6.36
10 | [O-]c1ccncc1Br | 9.4 | 
11 | CC(C)(/C=C/C(=O)O)c1cc(Br)ccc1O |  | 4.46
12 | NC(=O)c1ccccc1O |  | 8.61
13 | COc1ccc(N)cc1C[NH3+] | 5.24 | 
14 | C[NH2+]CCNCC[NH3+] | 4.64 | 
15 | O=[N+]([O-])c1cccc2nc3ccccc3c(NCCO)c12 | 7.2 | 
16 | CSc1nccc2ccccc12 | 3.93 | 
17 | O=[N+]([O-])c1cccc(O)c1[O-] |  | 11.5
18 | CNc1ncnc2c1cnn2C | 4.24 | 
19 | CONc1cc(=O)n(C)c(=O)n1C |  | 10.6
20 | CN1CCN(C(=O)c2ccccc2)CC1 | 6.78 | 
21 | COc1ccc(C)c(C(=O)O)c1 |  | 3.84
22 | CCC(=O)OCCN(C)C | 8.29 | 
23 | Oc1ccc2cc(Br)ccc2c1 |  | 9.2
24 | O=c1c2[nH]cnc2ncn1[O-] |  | 10.1

Row | SMILES | pKa (basic group) | pKa (acidic group)
25 | Cc1c2ccncc2cc2c1[nH]c1ccncc12 | 7.5 | 
26 | CC(C)S(=O)O |  | 2.3
27 | Nc1cccc(-c2ccccc2)c1 | 4.28 | 
28 | N/C(CC[NH3+])=N\O | 3.75 | 
29 | CN(C)c1nc2cc3c(cc2[nH]1)CCCC3 | 7.65 | 
30 | Cc1cccc(C(=O)[O-])n1 | 5.8 | 
31 | CCC(=O)NOC(=O)/C=C/c1ccccc1 |  | 6.8
32 | Cc1cc(C)c2ccc3cccnc3c2n1 | 5.96 | 
33 | C=CC(C)(CC)N(C)C(C)C (centres undefined) | 11.3 | 
34 | Oc1ccc2ncncc2c1 | 3.12 | 8.19
35 | Cn1c(=O)[nH]c(=O)c2[nH]cnc21 | 0.78 | 8.49
36 | CCCCCCCCCCN(CCO)CC(C)O (centres undefined) | 7.5 | 
37 | CC=C=CC(=O)CC(Cc1ccccc1)C(=O)[O-] (centres undefined) |  | 13.9
38 | CCN(CC)/N=C(\C)N | 10.6 | 
39 | Cc1ncc(CO)c(CO)c1O | 4.96 | 8.98
40 | [O-]c1cccc(O)c1 |  | 11.3
41 | C/C(=C\C=C\C(C)C(=O)O)[C@H]1C[NH2+][C@H](C(=O)[O-])[C@H]1CC(=O)[O-] (some centres undefined) |  | 4.93
42 | CC1=C(CC(C)NCC(O)c2ccc([N+](=O)[O-])cc2)CCC1(C)C (centres undefined) | 8.36 | 
43 | C=C(C)C(=O)OC(C)CN(CC)CC (centres undefined) | 8.65 | 
44 | COc1ccc(C(O)CNC(C)CC2=C(C)C(C)(C)CC2)cc1 (centres undefined) | 8.79 | 
45 | O=C(O)C#CBr |  | 1.9
46 | Cn1ccnc1-c1ccccn1 | 5.7 | 
47 | O=S1(=O)N=CNc2nc[nH]c21 |  | 5.59
48 | COc1ccccc1N | 4.51 | 

Row | SMILES | pKa (basic group) | pKa (acidic group)
49 | NNC(=O)c1cccnc1 | 3.27 | 11.5
50 | Oc1ccc2ccc3ccccc3c2c1 |  | 9.28
51 | O=[N+]([O-])c1ccc(B(O)O)cc1 |  | 7.15
52 | CCCCCc1c(-c2ccccc2)nn(-c2ccccc2)c1O |  | 7.3
53 | CN(C)c1ccc(N)cc1 | 6.37 | 
54 | NC(=O)CCc1ccncc1 | 5.58 | 
55 | N#Cc1ccc(O)c(O)c1 |  | 7.72
56 | NNC(=O)c1ccc([NH3+])cc1 | 2.05 | 
57 | c1ccc(N2CCCC2)cc1 | 4.3 | 
58 | C1CCN(N2CCCC2)C1 | 7.16 | 
59 | Oc1ccccc1-c1cc2ccccc2cc1O |  | 7.55
60 | CC(=O)n1cccn1 | 3.16 | 
61 | O/C(=C\c1ccccc1)c1ccco1 |  | 8.5
62 | Oc1onc2c1CCN(Cc1ccccc1)CC2 | 8 | 
63 | C[NH+](C)CCCCNc1ccnc2cccc([N+](=O)[O-])c12 | 6.71 | 
64 | CN(c1ccccc1)C1CCCCC1 | 6.35 | 
65 | CCc1ccnnc1C | 4.03 | 
66 | [NH3+]Cc1nnn[nH]1 |  | 2.62
67 | CC(C)(C)N1NC2CCC1C2 (centres undefined) | 9.12 | 
68 | CC(=O)CCN(C)C | 8.95 | 
69 | O=Cc1ccccn1 | 3.86 | 
70 | CC#C/C=C/C(=O)O |  | 4.2
71 | CC(=O)c1ccc(NN=C(C#N)C#N)cc1 | -0.77 | 5.85
72 | COC(=O)[C@@H]([NH3+])Cc1c[nH]cn1 | 5.38 | 

Row | SMILES | pKa (basic group) | pKa (acidic group)
73 | CN1C(C)(C)CCCC1(C)C | 11.2 | 
74 | OCC1CN2CCC1CC2 (centres undefined) | 10.6 | 
75 | Fc1cccnc1 | 2.97 | 
76 | CCOC(=O)c1c(C)nc(C)c(C(=O)OCC)c1-c1cccc(NS(=O)(=O)c2ccc(N)cc2)c1 |  | 9.7
77 | O=C1CC(=O)NC(=S)[N-]1 |  | 10.7
78 | C[C@@H]1CCC[C@H](C)N1CC(C)(C)O | 10.7 | 
79 | Cc1cc(I)c(O)c(I)c1 |  | 6
80 | [NH3+]Nc1nncc2ccccc12 | 2.9 | 
81 | Cc1ncc(CO)c(C)c1OCc1ccccc1 | 5.52 | 
82 | C=C(C)[C@@H]1C[NH2+][C@H](C(=O)O)[C@@H]1CC(=O)O |  | 2.09
83 | COc1cc(S(C)=O)ccc1-c1nc2nnccc2[nH]1 (centres undefined) | 3.63 | 8.71
84 | NCc1ccc(Cl)cc1 | 9.24 | 
85 | CN1CC[C@@]23c4c5ccc(O)c4O[C@]2(C)C(=O)CC[C@@H]3[C@@H]1C5 | 8.08 | 
86 | NCC[n+]1ccc2c([N+](=O)[O-])cccc2c1 | 6.65 | 
87 | Nc1nc(N)nc(N(CCO)CCO)n1 | 5.1 | 
88 | O=C1C=C(O)C(=O)c2ccccc21 |  | 3.19
89 | CC(/N=N/O)c1ccccc1 (centres undefined) |  | 8.32
90 | O=S(=O)([O-])c1ccncc1 | 3.44 | 
91 | O=P([O-])(O)c1cn2c([nH+]1)[C@@H](O)[C@H](O)[C@@H](O)[C@@H]2CO |  | 4.84
92 | COCCNc1cccc(OC)c1 | 3.7 | 
93 | CC[NH+](CC)CCCNc1ccnc2ccccc12 | 8.65 | 
94 | O=S(O)Cc1ccccc1 |  | 1.86
95 | CCCCCSC(=N)c1ccccc1 | 8.5 | 
96 | CCC1(C)CC(=O)NC1=O (centres undefined) |  | 9.34

Row | SMILES | pKa (basic group) | pKa (acidic group)
97 | c1ccc(-n2cccn2)nc1 | 1.07 | 
98 | C[NH+](C)CC(=O)O |  | 1.99
99 | CNCCN(C)CC[NH2+]C | 9.84 | 
100 | c1c[nH]c(Cc2ncc[nH]2)n1 | 7.27 | 
101 | NCCC=C(Cl)Cl | 9.85 | 
102 | OC(O)=C(O)c1ccccc1 |  | 6.39
103 | CC(=O)C1(c2cccc(O)c2)CCN(C)CC1 | 8.61 | 
104 | CN1C(=O)C2(CCCCC2)NC1=S |  | 11.2
105 | CC(C)(C)Cc1ccccc1O |  | 10.7
106 | Oc1c(Cl)cc(Cl)c(Cl)c1C[NH+]1CCOCC1 |  | 4.84
107 | COc1cc(C)nc(NN)n1 | 6.2 | 
108 | O=[PH](O)C([NH2+]Cc1ccc[nH+]c1)c1ccccc1O (centres undefined) |  | 2.35
109 | NC(=O)C(N)Cc1ccccc1 (centres undefined) |  | 7.33
110 | CN(C(=O)c1ccccc1)c1ccccn1 | 1.44 | 
111 | O=C(O)Cn1c2ccccc2c2ccccc21 |  | 3.55
112 | CC(C)(O)C(=O)O |  | 4.04
113 | CC(Br)C(=O)O (centres undefined) |  | 2.97
114 | CN1C[C@H](C(=O)[O-])C[C@@]2(O)c3cccc4[nH]cc(c34)C[C@H]12 | 9.17 | 
115 | Cc1cc(C)nc([N-]S(=O)(=O)c2ccc(O)cc2)n1 |  | 9.16
116 | CNc1c2ccccc2nc2cccc([N+](=O)[O-])c12 | 7.2 | 
117 | NNC(=O)c1cccc(N)c1 | 3.75 | 12.4
118 | COc1ccc(O)c(=O)cc1 |  | 7.75
119 | CC(C)[C@@]12C[NH2+][C@@H](C(=O)O)[C@@H]1CC(=O)O2 |  | 2.45
120 | CC(C)(C)CCCC(=O)O |  | 4.88

Row | SMILES | pKa (basic group) | pKa (acidic group)
121 | CC(C)n1nnnc1N | 1.91 | 
122 | Nc1nccc2c1[nH+]cn2CCOCP(=O)(O)O | 0.15 | 1.23
123 | CCNNCC | 7.66 | 
124 | Nc1ccc(/C=C/c2cc(N)c3ccccc3n2)cc1 | 9.5 | 
125 | C/C(O)=C/C(=O)O |  | 4.05
126 | CC(Cc1ccccc1)NCCC#N (centres undefined) | 7.23 | 
127 | CC(C)(C(=O)O)C(C#N)c1ccccc1 (centres undefined) |  | 3.95
128 | O=C(O)[C@H]1C[C@@H]1c1ccc([N+](=O)[O-])cc1 |  | 4.45
129 | NC(=O)Cc1cccnc1 | 4.72 | 
130 | CCCCNCC/C(N)=N/O | 9.6 | 
131 | O=C(O)c1c[nH]c2ccccc12 |  | 5.27
132 | CC(C)(C)c1ccc2c(c1)C(=O)NC2=O |  | 10.2
133 | Nc1ccc(-c2cnc(-c3ccc(Br)cc3)o2)cc1 | 3.51 | 
134 | O=C(O)C[Se]c1ccccc1[N+](=O)[O-] |  | 3.45
135 | Cc1ccc(-c2cnc(-c3ccc(Br)cc3)o2)cc1 | 0.56 | 
136 | [NH3+]CCC#CC#CCCC(=O)O |  | 4.12
137 | N/C(CC([NH3+])c1ccccc1)=N\O (centres undefined) | 3.75 | 
138 | CCCCCCCCCCCCCCCCCCNCCCCCCCCCCCCCCCCCC | 11 | 
139 | O=C(Oc1ccc([N+](=O)[O-])cc1)C1c2ccccc2-c2ccccc21 |  | 9.9
140 | Cc1cc(=O)n(-c2ccccc2)n1C | 1.45 | 
141 | O=C1O[C@@H]([C@H](O)[C@@H](O)[C@@H](O)CO)C([O-])=C1O |  | 12
142 | O=C([O-])[C@@H](NCC[NH2+][C@@H](C(=O)[O-])c1ccccc1[O-])c1ccccc1O |  | 10.8
143 | NCCNCCc1ccccc1 | 9.44 | 
144 | CCN(CC)CC(=N\[O-])/C(C)=N/O | 11.9 | 11.9

Row | SMILES | pKa (basic group) | pKa (acidic group)
145 | O=C([O-])[C@H](NCC[NH2+][C@@H](C(=O)[O-])c1ccccc1[O-])c1ccccc1O |  | 10.9
146 | [O-]B(O)c1cccc(O)c1 |  | 10.8
147 | CNc1nc(C)nc2nc[nH]c12 | 5.08 | 
148 | CCN(CC)CCNc1ccnc2ccccc12 | 8.95 | 
149 | [NH3+]C(c1cccc(O)c1O)P(=O)([O-])O (centres undefined) |  | 5.06
150 | C[NH+]1C[C@@H](C(=O)O)C[C@@]2(O)c3cccc4[nH]cc(c34)C[C@@H]12 |  | 3.38
151 | C/C(=N/O)c1ccc([O-])cc1O |  | 9.72
152 | C[n+]1ccncc1O |  | -0.04
153 | CCSC(C)(O)O |  | 12.1
154 | C[n+]1c([O-])ccnc1[O-] | 9.94 | 
155 | CCc1cc(C(C)C)c(O)cc1C |  | 10.9
156 | CCc1cnc(C(=O)[O-])cc1CC | 6.58 | 
157 | Cc1cnc2ccccc2c1 | 5.15 | 
158 | O=C(O)CCCc1c[nH]c[nH+]1 |  | 4.26
159 | NC(=O)C1=CN2CCC1CC2 |  | 7.32
160 | Nc1ccc(O)cc1[O-] |  | 11.3
161 | CC(C)NCCNC(C)C | 10.4 | 
162 | N#CCN1CCCCC1 | 4.55 | 
163 | O=C([O-])c1c2cccc1COCCOCc1ncc([nH]1)COCCOC2 | 7.05 | 
164 | CC(C)(/C=C/C(=O)[O-])c1ccccc1O |  | 10.7
